“Also recorded” adds a separate entry of the source.

Assay [1] concerns adjuvant-induced disease (AID). Put plainly: Adjuvant-induced disease (AID). In kind it is in vivo, Fisher 344 rats. Conditions: AID rats. The procedure:
Adjuvant-induced disease (AID) is a good experimental model for rheumatoid arthritis, and is often used in testing agents for anti-inflammatory activity. The compound was administered intraperitoneally on the 1st day, i.e., the day of the administration of Freund’s adjuvant (FA), and once every other day for the following 24 days. Adjuvant arthritis was developed about 14 days post-FA administration. […] The effect of the tested compound on inflammation is shown in Table 7 and the time course of adjuvant arthritis development expressed as arthritic score is shown in Figure 2. In the same experimental model, Indomethacin (IMA) was used as a reference compound.
The animals (Fisher 344 rats), were housed under standard conditions, and received a diet of commercial food pellets and water ad libitum during the maintenance, but were entirely fasted during the experiment period. Both sexes were used, while pregnant females were excluded. Each group was composed of 6–15 animals. Our studies were in accordance with recognized guidelines on animal experimentation (guidelines for the care and use of laboratory animals published by the Greek Government 160/1991, based on EU regulations 86/609). Rats were kept in the Centre of the School of Veterinary Medicine (EL54 BIO42), Aristotle University of Thessaloniki, which is registered by the official state veterinary authorities (presidential degree 56/2013, in harmony with the European Directive 2010/63/EEC). The experimental protocols were approved by the Animal Ethics Committee of the Prefecture of Central Macedonia.
Rats were divided into four groups (five-membered groups of animals were used): groups one, two and three were injected intradermally with 0.1 mL Freund’s adjuvant (FA) into the base of the tails of the animals; group three was the FA control rats; group four was injected with saline, used as an absolute control. Compound 2d (group 1) and indomethacin (group 2) were injected i.p. once every other day for the following 24 days in a dose of 0.00057 mmol/mL/kg body weight (Table 7). Adjuvant arthritis was developed circa 14 days post-FA administration. Arthritic score was measured every 2 days from the commencement (14th day) day. Arthritic score was assessed on the 24th day. For quantification of arthritis (arthritic score); a single point was assigned for each wrist or ankle area and an additional point was given for each involved phalangeal joint, up to a maximum of five points per extremity.
On the 24th day and at least 12 h after the last injection, animals were administered zoxazolamine i.p. […], as an aqueous suspension with a few drops of Tween 80, and the duration of the paralysis were assessed (Table 7) (Figure 2). The experiment was conducted in duplicate.

Assay [2] deals with T1, soybean lipoxygenase (Glycine max, UniProt P08170).
T1 construct: purchased Sigma Chemical, Co
T1 sequence (P08170 1-839): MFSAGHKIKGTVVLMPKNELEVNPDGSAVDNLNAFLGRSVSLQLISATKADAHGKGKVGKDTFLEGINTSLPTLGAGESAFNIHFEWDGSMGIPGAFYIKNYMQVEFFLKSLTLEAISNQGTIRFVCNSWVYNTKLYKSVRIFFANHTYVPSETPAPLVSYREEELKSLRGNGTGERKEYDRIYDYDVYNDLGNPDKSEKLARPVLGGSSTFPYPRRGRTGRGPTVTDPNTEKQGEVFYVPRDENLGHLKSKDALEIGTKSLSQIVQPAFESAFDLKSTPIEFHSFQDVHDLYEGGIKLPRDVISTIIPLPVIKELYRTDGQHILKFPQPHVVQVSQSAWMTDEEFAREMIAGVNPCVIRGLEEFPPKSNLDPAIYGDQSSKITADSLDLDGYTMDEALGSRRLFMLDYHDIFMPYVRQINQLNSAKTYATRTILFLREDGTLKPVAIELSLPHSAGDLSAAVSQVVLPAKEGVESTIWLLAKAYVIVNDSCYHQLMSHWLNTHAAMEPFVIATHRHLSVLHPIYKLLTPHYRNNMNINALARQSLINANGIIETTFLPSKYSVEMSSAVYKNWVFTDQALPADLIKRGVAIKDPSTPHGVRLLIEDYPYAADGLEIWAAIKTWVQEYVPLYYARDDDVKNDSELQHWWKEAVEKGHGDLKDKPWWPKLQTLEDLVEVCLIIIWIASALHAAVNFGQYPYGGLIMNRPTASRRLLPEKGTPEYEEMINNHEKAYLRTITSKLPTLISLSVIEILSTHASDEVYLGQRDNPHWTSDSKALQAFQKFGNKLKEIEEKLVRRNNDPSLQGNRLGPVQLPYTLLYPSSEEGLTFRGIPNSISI
The assay is described as follows: Soybean lipoxygenase inhibition study. It is filed as biochemical.

The mark [3] stands for this setting: 0.00057 mmol/mL/kg i.p. every other day for 24 days.

Consider `Brc1ccc(COc2ccc(C3CC(c4ccccc4)=NN3)cc2)cc1` (stereo not drawn) [Compound 2d, 5-(4-((4-bromobenzyl)oxy)phenyl)-3-phenyl-4,5-dihydro-1H-pyrazole], for which, in assay [1] (setting [3]), the “Percent change in body weight (g ± SD)” value is recorded as 6 ± 0.3 g and the “Percent change in liver weight (g ± SD)” value is recorded as 7 ± 0.6 g. Besides, the “Zoxazolamine paralysis (minutes ± SD)” value in assay [1] (24th day, zoxazolamine i.p.) was 227 ± 17 min. In assay [1] (i.p. once every other day for 24 days, versus AID rat controls), the “arthritis development / arthritic score” value is reported as “either did not develop or developed very mild arthritis; also recorded: significantly reduced”.

On to `CC(=O)n1nc(-c2ccc(Cl)cc2)cc1-c1cccc2ccccc12` [Compound 2g, 1-(3-(4-chlorophenyl)-5-(naphthalen-1-yl)-1H-pyrazol-1-yl)ethan-1-one], for which the inhibition at 100 µM in assay [2] (compound 100 µM, linoleic acid sodium salt 50 µM, read-out: LOX % Inhibition 100 µM, LLA 50 µM) was determined as 89.6%. In assay [2] (varying sodium linoleate concentration, enzyme and compound kept stable), the “type of LOX inhibition” value is given as “competitive inhibition”.

The values are drawn from article PMC8201324, “Pyrazoles and Pyrazolines as Anti-Inflammatory Agents” (Molecules, 2021).
